# Laboratory results reported in the C3SDB collision cross section collection.
# How the values were obtained:
# [1] = instrument: DT, stepped-field
# [2] = instrument: DT, single field, calibrated with Agilent tune mix (Agilent)
# [3] = instrument: DT, stepped-field; remark: listed apart in the source
SMILES,collision cross section (N2) ([3]; [M+Na]+),collision cross section (N2) ([3]; [M+H]+),other results
CCCCC/C=C\C/C=C\CCCCCCCC(=O)O[C@H](COC(=O)CCCCCCCCCCCCC)COP(=O)([O-])OCC[N+](C)(C)C [PC(32:02)],,,collision cross section (N2) ([1]; [M+Na]+): 276.86 Å²
CCCCC/C=C\C/C=C\C/C=C\C/C=C\CCCCCC(=O)O[C@H](COC(=O)CCCCCCC/C=C\C/C=C\CCCCC)COP(=O)(O)OCCN [PE(40:06)],,,collision cross section (N2) ([1]; [M+2Na-H]+): 287.86 Å²; collision cross section (N2) ([1]; [M-H]-): 280.5 Å²
CCCCCCCCCCCCCCCCCCCC(=O)N[C@@H](CO)[C@H](O)CCCCCCCCCCCCCCC [Cer(38:00)],,,collision cross section (N2) ([1]; [M+H]+): 267.37 Å²
CCCCCCCCCCCCC=CC[C@@H](O)[C@H](CO[C@@H]1O[C@H](CO)[C@@H](O)C(O)C1O)NC(=O)CC=CCCCCCCCCCCCCCC (stereo partly specified) [GlcCer(36:02)],,,collision cross section (N2) ([1]; [M+H]+): 281.37 Å²; collision cross section (N2) ([1]; [M+Na]+): 281.52 Å²
CC/C=C\C/C=C\C/C=C\C/C=C\C/C=C\CCCC(=O)O[C@H](COC(=O)CCCCCC/C=C\C/C=C\C/C=C\CCCCC)COP(=O)(O)OC[C@H](N)C(=O)O [PS(40:08)],,,collision cross section (N2) ([1]; [M+2Na-H]+): 287.97 Å²
CCCCCCCCCCCCCCCCCC(=O)N[C@@H](CO[C@@H]1O[C@H](CO)[C@@H](O)C(O)C1O)[C@H](O)CCCCCCCCCCCCCCC (stereo partly specified) [GlcCer(36:00)],,,collision cross section (N2) ([1]; [M+H]+): 284.59 Å²
CCCCC/C=C\C/C=C\C/C=C\C/C=C\CCCC(=O)O[C@H](COCCCCCCCCCCCCCCCC)COP(=O)(O)OCCN [PE(o36:04)],,,collision cross section (N2) ([1]; [M+2Na-H]+): 278.13 Å²
CCCCCCCCCCCCC=CC[C@@H](O)[C@H](COP(=O)([O-])OCC[N+](C)(C)C)NC(=O)CCCCCCCCCCCCCCC [SM(34:01)],,,collision cross section (N2) ([1]; [M+Cl]-): 284.26 Å²; collision cross section (N2) ([1]; [M+HCOO]-): 284.66 Å²; collision cross section (N2) ([1]; [M+H]+): 280.06 Å²; collision cross section (N2) ([1]; [M+Na]+): 278.77 Å²
CCCCCCCC/C=C\CCCCCCCCCC(=O)O[C@H](COC(=O)CCCCCCCCCCC)COP(=O)([O-])OCC[N+](C)(C)C [PC(32:01)],,,collision cross section (N2) ([1]; [M+HCOO]-): 284.71 Å²; collision cross section (N2) ([1]; [M+H]+): 276.5 Å²; collision cross section (N2) ([1]; [M+Na]+): 279.16 Å²
CCCCCCCC/C=C\CCCCCCCC(=O)O[C@H](COC(=O)CCCCCCCCCCCCCCCCC)COP(=O)(O)OC[C@H](N)C(=O)O [PS(36:01)],,,collision cross section (N2) ([1]; [M+2Na-H]+): 287.95 Å²; collision cross section (N2) ([1]; [M+H]+): 283.39 Å²; collision cross section (N2) ([1]; [M+K]+): 287.48 Å²; collision cross section (N2) ([1]; [M-H]-): 282.92 Å²
CCCCCCCCCC/C=C\CCCCCCCCCC(=O)O[C@H](COC(=O)CCCCCCCCCCCCCCCCCCC)COP(=O)(O)OC[C@H](N)C(=O)O [PS(42:01)],,,collision cross section (N2) ([1]; [M+H]+): 301.86 Å²; collision cross section (N2) ([1]; [M+Na]+): 303.25 Å²
CCCCC/C=C\C/C=C\C/C=C\CCCCCCC(=O)O[C@H](COC(=O)CCCCCCC/C=C\C/C=C\CCCCC)COP(=O)(O)OCCN [PE(38:05)],,,collision cross section (N2) ([1]; [M+2Na-H]+): 283.55 Å²; collision cross section (N2) ([1]; [M+K]+): 282.77 Å²; collision cross section (N2) ([1]; [M-H]-): 274.82 Å²
C[C@H]1O[C@@H](n2cnc3c(N)ncnc32)[C@H](O)[C@@H]1O [5'-Deoxyadenosine],171.99 Å²,162.1 Å²,collision cross section (N2) ([2]; [M+Na]+): 166.8 Å²; collision cross section (N2) ([2]; [M-H]-): 151.91 Å²
NCCc1c[nH]c2ccc(O)cc12 [Serotonin],150.8 Å²,151.9 Å²,collision cross section (N2) ([2]; [M-H]-): 135.85 Å²
Cn1c(=O)c2c(ncn2C)n(C)c1=O [Caffeine],142.93 Å²,145.4 Å²,collision cross section (N2) ([2]; [M+H]+): 140.9 Å²
c1ccc2c(c1)cc1ccc3cccc4ccc2c1c34 [Benzo(a)Pyrene],,152.05 Å²,

SMILES,collision cross section (N2) ([3]; [M+Na]+),collision cross section (N2) ([3]; [M+H]+),other results
C1=Cc2cccc3cccc1c23 [Acenaphthylene],,125.71 Å²,
CCCCC/C=C\C/C=C\C/C=C\C/C=C\CCCCCC(=O)O [Adrenic Acid],192.83 Å²,189.41 Å²,
CP(=O)(O)CCC(N)C(=O)O (stereo unspecified) [Glufosinate],142.7 Å²,140.15 Å²,
OC[C@H]1O[C@@H](O[C@H]2[C@H](O)[C@@H](O)[C@H](O)O[C@@H]2CO)[C@H](O)[C@@H](O)[C@@H]1O [Cellobiose],178.66 Å²,,collision cross section (N2) ([2]; [M+Na]+): 178.1 Å²
CCCCC/C=C\C/C=C\C/C=C\CCCCCCC(=O)O [Bishomo-gamma-linolenic Acid],183.38 Å²,,
CC12CCC(CC1=O)C2(C)C (stereo unspecified) [Camphor],,142.8 Å²,
c1cncc(C2CCCCN2)c1 (stereo unspecified) [Anabasine],,140.18 Å²,
NC(=NCCC[C@H](N)C(=O)O)N[C@@H](CC(=O)O)C(=O)O [Argininosuccinic Acid],172.22 Å²,167.39 Å²,
Cn1cncc1C[C@H](N)C(=O)O [3-Methyl-L-histidine],,136.57 Å²,
OC[C@H]1O[C@@H](O[C@H]2[C@H](O)[C@@H](O)[C@H](O[C@H]3[C@H](O)[C@@H](O)[C@H](O[C@H]4[C@H](O)[C@@H](O)C(O)O[C@@H]4CO)O[C@@H]3CO)O[C@@H]2CO)[C@H](O)[C@@H](O)[C@@H]1O (stereo partly specified) [Cellotetraose],225 Å²,,
CN(C)C(=O)Nc1cccc(C(F)(F)F)c1 [Fluometuron],161.2 Å²,152.2 Å²,
OC[C@H]1O[C@@](CO)(OC[C@@]2(O[C@H]3O[C@H](CO)[C@@H](O)[C@H](O)[C@H]3O)O[C@H](CO)[C@@H](O)[C@@H]2O)[C@@H](O)[C@@H]1O [1-Kestose],205.43 Å²,,
CCCCC/C=C\C[C@H](O)/C=C/C=C\C/C=C\CCCC(=O)O [12S-HETE],193.33 Å²,,
Cc1ncsc1CCO [4-Methyl-5-Thiazolethanol],,145.34 Å²,
NCCC(=O)N[C@@H](Cc1cnc[nH]1)C(=O)O [Carnosine],,152.18 Å²,
C1=Cc2c3ccc4ccccc4c3cc3cccc1c23 [Benz(j)aceanthrylene],,155.08 Å²,

# More lines, main results first:
collision cross section (N2) ([3]; [M+Na]+),collision cross section (N2) ([3]; [M+H]+),SMILES,other results
158.41 Å²,,Nc1ccn([C@H]2C[C@H](O)[C@@H](CO)O2)c(=O)n1 [Deoxycytidine],collision cross section (N2) ([2]; [M+Na]+): 154.5 Å²; collision cross section (N2) ([2]; [M-H]-): 146.84 Å²
251.61 Å²,236.2 Å²,C[C@@H]1O[C@@H](OC[C@H]2O[C@@H](Oc3c(-c4ccc(O)c(O)c4)oc4cc(O)cc(O)c4c3=O)[C@H](O)[C@@H](O)[C@@H]2O)[C@H](O)[C@H](O)[C@H]1O [Rutin],collision cross section (N2) ([2]; [M+H]+): 232.6 Å²; collision cross section (N2) ([2]; [M-H]-): 231.04 Å²
152.77 Å²,156.07 Å²,Nc1ccc(S(N)(=O)=O)cc1 [Sulfanilamide],
169.74 Å²,163.84 Å²,Cc1cn([C@H]2C[C@H](O)[C@@H](COP(=O)(O)O)O2)c(=O)[nH]c1=O [Thymidine 5'-Monophosphate],
137.57 Å²,131.7 Å²,CC(=O)NCCCCN [N-Acetylputrescine],collision cross section (N2) ([2]; [M+H]+): 128.3 Å²; collision cross section (N2) ([2]; [M-H]-): 127.22 Å²
181.37 Å²,,CCCCCCCC/C=C\CCCCCCCC(=O)O [Oleic Acid],
,167.96 Å²,O=C1CC(c2ccc(O)cc2)Oc2cc(O)cc(O)c21 (stereo unspecified) [Naringenin],
141.93 Å²,,OCC1(O)OC[C@@H](O)[C@@H](O)[C@@H]1O (stereo partly drawn) [D-Fructose],collision cross section (N2) ([2]; [M+Na]+): 141.4 Å²
159.77 Å²,155.97 Å²,Cn1cncc1C[C@H](NC(=O)CCN)C(=O)O [L-Anserine],collision cross section (N2) ([2]; [M+H]+): 154.1 Å²; collision cross section (N2) ([2]; [M-H]-): 152.32 Å²
159.68 Å²,,O=C(COP(=O)(O)O)[C@@H](O)[C@H](O)[C@H](O)CO [Fructose-1-phosphate],collision cross section (N2) ([2]; [M+Na]+): 155.4 Å²; collision cross section (N2) ([2]; [M-H]-): 141.86 Å²
,172.53 Å²,Cc1ncc(C[n+]2csc(CCOP(=O)(O)O)c2C)c(N)n1 [Thiamine Monophosphate],
165.7 Å²,167.23 Å²,CC[C@H](NC(=O)CC[C@H](N)C(=O)O)C(=O)NCC(=O)O [Ophthalmic Acid],
146.11 Å²,148.9 Å²,O=C(O)CC(O)(CC(=O)O)C(=O)O [Citric Acid],
,128.79 Å²,Oc1ccc(O)cc1 [Hydroquinone],
234.02 Å²,240.62 Å²,C[C@@H]1O[C@@H](O[C@H]2[C@H](Oc3cc(O)c4c(c3)O[C@H](c3ccc(O)cc3)CC4=O)O[C@H](CO)[C@@H](O)[C@@H]2O)[C@H](O)[C@H](O)[C@H]1O [Naringin],collision cross section (N2) ([2]; [M+H]+): 237.5 Å²
151.4 Å²,,O=C[C@H](O)[C@@H](O)[C@H](O)COP(=O)(O)O [D-Xylose 5-phosphate],
207.33 Å²,,CCCCC[C@H](O)/C=C/[C@@H]1[C@@H](C/C=C\CCCC(=O)O)[C@@H](O)C[C@H]1O [Prostaglandin F2 alpha],
232.01 Å²,222.79 Å²,NC(=O)c1ccc[n+]([C@@H]2O[C@H](COP(=O)(O)OP(=O)(O)OC[C@H]3O[C@@H](n4cnc5c(=O)nc[nH]c54)[C@H](O)[C@@H]3O)[C@@H](O)[C@H]2O)c1 [Nicotinamide Hypoxanthine Dinucleotide],
